Earlier results on one compound are cited in US6214381A, “Methazolamide composition and method of use” (Effcon, Inc., priority 1998, dated 2001).

Molecules are shown by their SMILES.

For the data set the following is noted: background statement.

As for `CC(=O)N=c1sc(S(N)(=O)=O)nn1C` [Methazolamide, methazolamide], the water solubility entry is reported as “water-insoluble”.
